Among the data in patent US7884118B2, “1-cycloalkyl-5-iodotetrazoles” (LANXESS Deutschland GmbH, priority 2005, dated 2011) are MIC and melting point values, retold here.

The test system of one series is Aspergillus niger. In words: Minimum inhibitory concentration (MIC) against fungi, malt extract agar. The format is cell-based. To be noted: 336 h, 2 weeks at 28° C., 60 to 70% relative atmospheric humidity, read-out: Minimum inhibitory concentrations Aspergillus niger. How it is done: (§1) In each case, the active compounds according to the invention, in concentrations of from 0.1 mg/l to 5000 mg/l, were added to an agar which had been prepared using malt extracts. The MIC was determined after 2 weeks of storage at 28° C. and 60 to 70% relative atmospheric humidity. The MIC is the lowest concentration of active compound at which there is no colonization by the microbial species used.

Another series has as its system Chaetomium globosum. The series is described as above. The format is cell-based. As to conditions: 336 h, 2 weeks at 28° C., 60 to 70% relative atmospheric humidity, read-out: Minimum inhibitory concentrations Chaetomium globosum. How it is done: as §1
The subject of the next series is Penicillium brevicaule. The series is described as above. In kind it is cell-based. As to conditions: 336 h, 2 weeks at 28° C., 60 to 70% relative atmospheric humidity, read-out: Minimum inhibitory concentrations Penicillium brevicaule. How it is done: as §1

The term melting point denotes the temperature of the solid-liquid transition. `Ic1nnnn1C1CCCC1` [Example 1, 1-Cyclopentyl-5-iodotetrazole] had a melting point of 119 °C. In addition, the MIC with Aspergillus niger is < 20 µg/mL. For the same compound, the MIC in the series on Chaetomium globosum was < 20 µg/mL. The MIC in the series with Penicillium brevicaule was < 20 µg/mL.
